Molecules are shown by their SMILES.

35 molecules from ChEMBL document CHEMBL1147428, “A new class of potent non-imidazole H(3) antagonists: 2-aminoethylbenzofurans” (Bioorg Med Chem Lett, 2004) can be followed below.

The target in assay [1] is Histamine H3 receptor (Homo sapiens, UniProt Q9Y5N1). Nature of the assay: Binding potency was determined by displacement of [3H]N-alpha-methyl histamine from cloned human histamine H3 receptor expressed in C6 cells. Type of assay: cell-based.
The target of assay [2] is T1, Histamine H3 receptor (Rattus norvegicus, UniProt Q9QYN8). Nature of the assay: Binding potency was determined by displacement of [3H]N-alpha-methyl histamine from histamine H3 receptor of rat cortical membranes. Type of assay: cell membranes, Membrane.
T1 sequence (Q9QYN8 whole entry): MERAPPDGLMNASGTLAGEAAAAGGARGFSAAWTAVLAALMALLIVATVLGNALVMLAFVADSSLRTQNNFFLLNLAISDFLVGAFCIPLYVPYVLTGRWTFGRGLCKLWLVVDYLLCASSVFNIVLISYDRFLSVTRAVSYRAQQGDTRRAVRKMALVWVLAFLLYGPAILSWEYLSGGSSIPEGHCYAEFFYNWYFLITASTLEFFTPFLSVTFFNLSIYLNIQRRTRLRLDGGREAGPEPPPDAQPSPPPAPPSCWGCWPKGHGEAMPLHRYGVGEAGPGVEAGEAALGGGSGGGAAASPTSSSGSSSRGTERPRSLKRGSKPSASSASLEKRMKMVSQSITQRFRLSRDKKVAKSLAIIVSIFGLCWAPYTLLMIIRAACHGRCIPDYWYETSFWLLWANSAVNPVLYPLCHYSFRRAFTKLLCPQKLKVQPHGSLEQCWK
Assay [3] concerns the target T1, Histamine H3 receptor. Nature of the assay: Binding potency by displacement of [3H]N-alpha-methyl histamine from histamine H3 receptor of rat cortical membranes. It counts as cell membranes, Membrane.
The target of assay [4] is T1, Histamine H3 receptor. Nature of the assay: pBinding potency by displacement of [3H]N-alpha-methyl histamine from histamine H3 receptor of rat cortical membranes. It counts as cell membranes, Membrane. In general terms: Loss of bound radioactivity is the signal in a displacement assay; it reports binding, not function.

Sequence of Histamine H3 receptor (Homo sapiens, UniProt Q9Y5N1) (Q9Y5N1 whole entry): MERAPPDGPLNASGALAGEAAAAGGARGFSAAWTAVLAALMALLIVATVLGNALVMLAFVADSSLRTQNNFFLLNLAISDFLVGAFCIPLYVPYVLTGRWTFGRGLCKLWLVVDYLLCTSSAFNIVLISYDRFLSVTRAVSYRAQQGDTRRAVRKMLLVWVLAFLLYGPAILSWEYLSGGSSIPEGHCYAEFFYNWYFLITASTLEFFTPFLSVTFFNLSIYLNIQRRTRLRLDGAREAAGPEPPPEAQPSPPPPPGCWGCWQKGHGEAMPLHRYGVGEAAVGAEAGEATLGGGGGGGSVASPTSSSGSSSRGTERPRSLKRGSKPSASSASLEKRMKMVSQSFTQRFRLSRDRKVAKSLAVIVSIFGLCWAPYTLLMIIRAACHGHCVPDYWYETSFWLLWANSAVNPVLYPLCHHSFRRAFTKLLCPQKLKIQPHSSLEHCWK

By Ki is commonly meant the dissociation constant of the complex between target and ligand, obtained from inhibition or displacement. High values mean a looser hold on the target, low ones a stronger hold on the target. `C[C@@H]1CC[C@@H](C)N1CCc1cc2cc(-c3ccc(C(=O)N4CCOCC4)cc3)ccc2o1`: the Ki at Histamine H3 receptor [1] stood at 2.2 nM.
Take `C[C@@H]1CC[C@@H](C)N1CCc1cc2cc(-c3ccc(C(=O)N4CCOCC4)cn3)ccc2o1`: the Ki on Histamine H3 receptor [1] stood at 5.9 nM; at Histamine H3 receptor [2] it was 26 nM.
In the same order, the values of `CC1CCN(CCc2cc3cc(-c4ccc(C(=O)N5CCOCC5)cn4)ccc3o2)CC1` are 87 nM and 151 nM.
The like results for `N#Cc1ccc(-c2ccc3oc(CCN4CC=CCC4)cc3c2)cc1` were, in that order, 10 nM and 50 nM.
In the same order, the values of `C[C@@H]1CCCN1CCc1cc2cc(-c3ccc(C(=O)N4CCOCC4)cn3)ccc2o1` are 0.55 nM and 1.6 nM.
On Histamine H3 receptor [1], `CC1CCCCN1CCc1cc2cc(-c3ccc(C#N)cc3)ccc2o1` (stereo unspecified) registered a Ki of 5.8 nM.
Regarding `C[C@@H]1CC[C@@H](C)N1CCc1cc2cc(-c3ccc(C#N)cc3)ccc2o1`, the Ki on Histamine H3 receptor [1] stood at 5.1 nM; at Histamine H3 receptor [2] it was 42 nM.
On to `N#Cc1ccc(-c2ccc3oc(CCN4CCC(O)C4)cc3c2)cc1` (stereo unspecified), for which the Ki at Histamine H3 receptor [1] was determined as 8.8 nM; at Histamine H3 receptor [2], 95 nM.
The like results for `C[C@@H]1CCC[C@H](C)N1CCc1cc2cc(-c3ccc(C#N)cc3)ccc2o1` were, in that order, 2.4 nM and 22 nM.
The like results for `O=C(c1ccc(-c2ccc3oc(CCN4CCCC4)cc3c2)nc1)N1CCOCC1` were, in that order, 3.9 nM and 29 nM.
For `CC1CCN(CCc2cc3cc(-c4ccc(C(=O)N5CCOCC5)cc4)ccc3o2)CC1`, the affinity on Histamine H3 receptor [1] corresponds to a Ki of 17 nM.
As to `CN(C)[C@@H]1CCN(CCc2cc3cc(-c4ccc(C#N)cc4)ccc3o2)C1`, the values for the Ki on Histamine H3 receptor [1] and on Histamine H3 receptor [2] were 16 nM and 63 nM, respectively.
As for `N#Cc1ccc(-c2ccc3oc(CCn4ccnc4)cc3c2)cc1`, the Ki on Histamine H3 receptor [1] turned out to be 600 nM.
For `O=C(c1ccc(-c2ccc3oc(CCN4CCC[C@@H]4CO)cc3c2)nc1)N1CCOCC1`, the Ki on Histamine H3 receptor [1] was 36 nM; on Histamine H3 receptor [2], 110 nM.
The like results for `CN(C)[C@H]1CCN(CCc2cc3cc(-c4ccc(C#N)cc4)ccc3o2)C1` were, in that order, 49 nM and 140 nM.
In the same order, the values of `O=C(c1ccc(-c2ccc3oc(CCN4CCC[C@H]4CO)cc3c2)cc1)N1CCOCC1` are 1.9 nM and 6.9 nM.
In the same order, the values of `O=C(c1ccc(-c2ccc3oc(CCN4CCCCC4)cc3c2)nc1)N1CCOCC1` are 12 nM and 49 nM.
With `O=C(c1ccc(-c2ccc3oc(CCN4CCCCCC4)cc3c2)nc1)N1CCOCC1`, the Ki is 16 nM at Histamine H3 receptor [1] and 33 nM on Histamine H3 receptor [2].
On Histamine H3 receptor [1], `N#Cc1ccc(-c2ccc3oc(CCN4CCCCCC4)cc3c2)cc1` showed a Ki of 7.8 nM.
Molecule `N#Cc1ccc(-c2ccc3oc(CCN4CCC[C@H]4CO)cc3c2)cc1` had a Ki at Histamine H3 receptor [1] of 2.2 nM.
On to `N#Cc1ccc(-c2ccc3oc(CCN4CCC[C@@H]4CC(=O)O)cc3c2)cc1`, for which the Ki at Histamine H3 receptor [1] was 320 nM; on Histamine H3 receptor [2], 1600 nM.
Turning to `C[C@@H]1CCC[C@H](C)N1CCc1cc2cc(-c3ccc(C(=O)N4CCOCC4)cn3)ccc2o1`, the Ki on Histamine H3 receptor [1] is 5.6 nM; at Histamine H3 receptor [3], 45 nM; at Histamine H3 receptor [2] it was 44.7 nM.
In turn, `O=C(c1ccc(-c2ccc3oc(CCN4CCCCCC4)cc3c2)cc1)N1CCOCC1` had a Ki on Histamine H3 receptor [1] of 3.5 nM.
For the molecule `O=C(c1ccc(-c2ccc3oc(CCN4CCCCC4)cc3c2)cc1)N1CCOCC1`, the Ki turned out to be 2.3 nM on Histamine H3 receptor [1] and 6.2 nM on Histamine H3 receptor [2].
Molecule `O=C(c1ccc(-c2ccc3oc(CCN4CCOCC4)cc3c2)nc1)N1CCOCC1` yielded a Ki at Histamine H3 receptor [2] of 260 nM.
Take `C[C@@H]1CCC[C@H](C)N1CCc1cc2cc(-c3ccc(C(=O)N4CCOCC4)cc3)ccc2o1`: the Ki at Histamine H3 receptor [1] is 1.2 nM; at Histamine H3 receptor [2], 6.6 nM.
For the molecule `N#Cc1ccc(-c2ccc3oc(CCN4CCCCC4)cc3c2)cc1`, the Ki at Histamine H3 receptor [1] came to 8.8 nM.
Turning to `C[C@@H]1CCCN1CCc1cc2cc(-c3ccc(C(=O)N4CCOCC4)cc3)ccc2o1`, the values for the Ki at Histamine H3 receptor [1], on Histamine H3 receptor [2] and at Histamine H3 receptor [4] were 0.7 nM, 1.95 nM and 2 nM, respectively.
For `O=C(c1ccc(-c2ccc3oc(CCN4CCOCC4)cc3c2)cc1)N1CCOCC1`, the Ki at Histamine H3 receptor [1] worked out at 45 nM; at Histamine H3 receptor [2], 160 nM.
In the case of `N#Cc1ccc(-c2ccc3oc(CCN4CCC[C@@H]4CO)cc3c2)cc1`, on Histamine H3 receptor [1], the Ki turned out to be 18 nM.
Same read-out and setting: for `O=C(c1ccc(-c2ccc3oc(CCN4CCC(O)C4)cc3c2)nc1)N1CCOCC1` (stereo unspecified) the value was 12 nM.
In the case of `O=C(c1ccc(-c2ccc3oc(CCN4CC=CCC4)cc3c2)cc1)N1CCOCC1`, the Ki worked out at 5.9 nM at Histamine H3 receptor [1] and 17 nM on Histamine H3 receptor [2].
In the same order, the values of `CC1CCCCN1CCc1cc2cc(-c3ccc(C(=O)N4CCOCC4)cc3)ccc2o1` (stereo unspecified) are 3 nM and 14 nM.
The like results for `O=C(c1ccc(-c2ccc3oc(CCN4CC[C@@H](O)C4)cc3c2)cc1)N1CCOCC1` were, in that order, 6.2 nM and 35 nM.
In the same order, the values of `CC1CCN(CCc2cc3cc(-c4ccc(C#N)cc4)ccc3o2)CC1` are 15 nM and 16 nM.
